# Data reported in US12036301B2, “Deodorant and antiperspirant compositions” (The Procter & Gamble Company, priority 2017, dated 2024).
# Counter-ions that a name gives are not always drawn.
# What was measured:
# C. mucofaciens = assay: Tier 1 Anaerobic MIC Assay; assay type: cell-based, Corynebacterium mucofaciens (clinical isolate); conditions: raw material, BHI with 1% Tween 80, 37° C. overnight
# Source text: (§1) 1. Tier 1 Anaerobic MIC Assay
# (§2) The data in Table 1 above was generated with the following test method. The purpose of this assay is to determine if a compound or formulation has an antimicrobial effect in vitro.
# (§3) It is understood that when not specifically noted in this procedure: • a) All materials, reagents and equipment required for this procedure are of appropriate design and condition of cleanliness and/or sterility as determined by their intended use. • b) The operator has been trained in aseptic technique and has been qualified to perform the procedure and accurately interpret the results. • c) All media required for this procedure was manufactured by a reputable commercial source eg. Difco, Merck etc. and has been stored and prepared as per manufacturer's instructions. • d) All routine laboratory controls, including but not limited to, media function and growth promotion tests, verification of sterility and use of positive and negative controls are being conducted. Procedure: (all Procedures Performed in Anaerobic Chamber Except where Noted) 1. Apparatus • Incubator at 37° C.; 20-200 ul 12 channel pipette; 5-50 ul 12 channel pipette; 1250 ul 8 channel Thermo Scientific Matrix pipette; 96 well plate shaker (located in incubator); Beckman Coulter deep well cap mat #267005; Beckman Coulter deep 96 well plates #267007; Falcon 96 well tissue culture plates #353072; Vortexer; Culture tubes/caps Disposable sterile gloves; Sterile petri dishes; Standard microbiological lab equipment (sterile pipettes, syringes, tips, loops, etc.); Glass bottles/flasks for media; Autoclave; Parafilm; Spectrophotometer. 2. Media • 0.9% or 0.85% saline solution • BHI agar supplemented with 1% Tween 80 • BHI media supplemented with 1% Tween 80 3. Microbial Strains • Staphylococcus epidermidis (clinical isolate) • Corynebacterium mucofaciens (clinical isolate) 4. Test Procedure Inoculum Preparation • Prior to testing streak organisms for isolation on BHI with 1% Tween 80 plates, wrap with parafilm and place in 37° C. incubator. When isolated colonies appear remove one representative colony from each plate and place each in 5 ml of BHI with 1% Tween 80 media. Incubate at 37° C. with shaking overnight. Inoculate 20 ml BHI with 1% Tween 80 (per 96 deep well plate to be tested) with 20 ul of the overnight culture (1-1000 dilution). Master Plate Preparation • Compounds/formulations to be tested are diluted across a 96 deep well plate as shown below (for a 1% stock solution). 800 ul of 0.85% saline is added to wells A1 and B1 (as these will be the negative and positive control respectively). 800 ul each 1% stock solution+positive control are added to wells C1 through H1. 400 ul 0.85% saline are added to all other wells. 400 ul is then removed from #1 well added to the #2 well and mixed. This is then continued across the plate resulting in a 50% dilution between wells across the plate (this can be easily accomplished with an automatic 8 channel Matrix pipette set to withdraw, dispense and mix).
# (§4) In row A of a 96 deep well plate pipette 180 ul of sterile BHI with 1% Tween 80 as a negative growth control. All other wells receive 180 ul of inoculum. From the master plate introduce 20 ul to the corresponding row in the test plate using an 8-channel pipette. Loaded plates are placed on a plate shaker in the 37° C. incubator and incubated overnight. The next day read the O.D. 600 on a plate reader. The MIC is the last well from the right that has no bacterial growth.
# S. epidermidis = assay: Tier 1 Anaerobic MIC Assay; assay type: cell-based, Staphylococcus epidermidis (clinical isolate); conditions: raw material, BHI with 1% Tween 80, 37° C. overnight
# Source text: as §1, §2, §3, §4
# [1] = iron binding affinity; NIST Standard Reference Database 46; cited from earlier work
# [2] = tested on: two key underarm bacteria strains; assay: Raw material microbial inhibition, verbal summary for both strains; assay type: cell-based, C. mucofaciens and S. epidermidis; conditions: verbal summary of Table 2, both strains
# Source text: The data in Table 1 above was generated with the following test method.
# It is understood that when not specifically noted in this procedure: • a) All materials, reagents and equipment required for this procedure are of appropriate design and condition of cleanliness and/or sterility as determined by their intended use. • b) The operator has been trained in aseptic technique and has been qualified to perform the procedure and accurately interpret the results. • c) All media required for this procedure was manufactured by a reputable commercial source eg. […] Procedure: (all Procedures Performed in Anaerobic Chamber Except where Noted) 1. […] 2. […] Microbial Strains • Staphylococcus epidermidis (clinical isolate) • Corynebacterium mucofaciens (clinical isolate) 4. Test Procedure Inoculum Preparation • Prior to testing streak organisms for isolation on BHI with 1% Tween 80 plates, wrap with parafilm and place in 37° C. incubator. When isolated colonies appear remove one representative colony from each plate and place each in 5 ml of BHI with 1% Tween 80 media. Incubate at 37° C. with shaking overnight. Inoculate 20 ml BHI with 1% Tween 80 (per 96 deep well plate to be tested) with 20 ul of the overnight culture (1-1000 dilution). Master Plate Preparation • Compounds/formulations to be tested are diluted across a 96 deep well plate as shown below (for a 1% stock solution). […] 800 ul each 1% stock solution+positive control are added to wells C1 through H1. […] 400 ul is then removed from #1 well added to the #2 well and mixed. This is then continued across the plate resulting in a 50% dilution between wells across the plate (this can be easily accomplished with an automatic 8 channel Matrix pipette set to withdraw, dispense and mix).
# as §4
# [3] = intrinsic water solubility independent of pH
SMILES,"microbial inhibition concentration (MIC), C. mucofaciens (C. mucofaciens) [ppm]","microbial inhibition concentration (MIC), S. epidermidis (S. epidermidis) [ppm]",Log K1 [1],performance against the bacteria as raw materials [2],further results
[Ca+2].[Cl-].[Cl-] [CaCl],>50000,>50000,–,–,–
O=C(O)CC(O)(CC(=O)O)C(=O)O [Citric Acid],–,–,11,–,–
C=CCc1ccc(O)c(OC)c1 [Eugenol],–,–,–,performing well,–
COC(=O)CCC(=O)OC [Dimethyl Succinate],–,–,–,performing well,–
O=C(O)CN(CCN(CC(=O)O)CC(=O)O)CCN(CC(=O)O)CC(=O)O [Diethylenetriaminepentaacetic acid],–,–,28,–,–
CCCCC(CC)COCC(O)CO (stereo not shown) [Ethylhexyl glycerin],12500,12500,–,–,–
"CC(C(=O)O)N(CC(=O)O)CC(=O)O (stereo not shown) [Methylglycine diacetic acid (MGDA), Methylglycine diacetic acid]",–,–,16,–,–
C=CCCCCCCCCC(=O)N[C@@H](Cc1ccccc1)C(=O)O [Sepiwhite],2000,1000,–,performing well,–
[Cl-].[Na+] [NaCl],>25000,>25000,–,–,–
CCOC(=O)CC(O)(CC(=O)OCC)C(=O)OCC [Triethyl citrate],–,–,–,performing well,–
"Cc1cc(CC(C)CC(C)(C)C)n(O)c(=O)c1.NCCO (stereo not shown) [Piroctone olamine, 1-Hydroxy-4-methyl-6-(2,4,4-trimethylpentyl)-2-pyridone monoethanolamine salt]",–,–,–,perform particularly well,LogWSo [3]: −3.22
CCCCCCCCC(CO)CCCCCC (stereo not shown) [Hexyl Decanol],6062,3031,–,–,–
CC(C)=CCCC(C)=CC=O [Citral],–,–,–,performing well,–
O=P(O)(O)CN(CCN(CP(=O)(O)O)CP(=O)(O)O)CCN(CP(=O)(O)O)CP(=O)(O)O [Diethylenetriaminepentakis(methylenephosphonic acid)],–,–,23,–,–
"O=C([O-])[O-].[Ca+2] [Ca Carbonate, calcium carbonate]",>2500,>2500,–,performing moderately well,–
CC(=O)N(O)CCCCCNC(=O)CCC(=O)N(O)CCCCCNC(=O)CCC(=O)N(O)CCCCCN [Desferrioxamine],–,–,31,–,–
